Reference: BindingDB's records for doi:10.1111/j.1432-1033.1992.tb17252.x (Universit&Eacute, 1992)
pKi: −log10 of the molar value. Non-standard residues stand in square brackets, D forms with d. Residues, ends and D or L forms follow the SMILES beside them. ξ: configuration not given here. Ile(3ξ) = CCC(C)[C@H](N)C(=O)O

What follows are molecules tested against T1, Pituitary adenylate cyclase-activating polypeptide (Homo sapiens, UniProt P18509).
T1 sequence (P18509 whole entry): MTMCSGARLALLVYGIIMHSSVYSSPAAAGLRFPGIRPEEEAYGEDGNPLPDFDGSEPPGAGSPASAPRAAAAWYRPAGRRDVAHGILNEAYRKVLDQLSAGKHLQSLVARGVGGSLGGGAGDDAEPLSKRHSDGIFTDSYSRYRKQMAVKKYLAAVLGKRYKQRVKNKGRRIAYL
In the case of CCC(C)[C@H](NC(=O)CNC(=O)[C@@H](N)CC(=O)O)C(=O)N[C@@H](Cc1ccccc1)C(=O)N[C@H](C(=O)N[C@@H](CC(=O)O)C(=O)N[C@@H](CO)C(=O)N[C@@H](Cc1ccc(O)cc1)C(=O)N[C@@H](CO)C(=O)N[C@@H](CCCN=C(N)N)C(=O)N[C@@H](Cc1ccc(O)cc1)C(=O)N[C@@H](CCCN=C(N)N)C(=O)N[C@@H](CCCCN)C(=O)N[C@@H](CCC(N)=O)C(=O)N[C@@H](CCSC)C(=O)N[C@@H](C)C(=O)N[C@H](C(=O)N[C@@H](CCCCN)C(=O)N[C@@H](CCCCN)C(=O)N[C@@H](Cc1ccc(O)cc1)C(=O)N[C@@H](CC(C)C)C(=O)N[C@@H](C)C(=O)N[C@@H](C)C(=O)N[C@H](C(=O)N[C@@H](CC(C)C)C(=O)NCC(=O)N[C@@H](CCCCN)C(=O)N[C@@H](CCCN=C(N)N)C(=O)N[C@@H](Cc1ccc(O)cc1)C(=O)N[C@@H](CCCCN)C(=O)N[C@@H](CCC(N)=O)C(=O)N[C@@H](CCCN=C(N)N)C(=O)N[C@H](C(=O)N[C@@H](CCCCN)C(=O)N[C@@H](CC(N)=O)C(=O)N[C@@H](CCCCN)C(N)=O)C(C)C)C(C)C)C(C)C)[C@@H](C)O (some centres not stated) [PACAP(3-38)] (H-DG[Ile(3ξ)]FTDSYSRYRKQMAVKKYLAAVLGKRYKQRVKNK-NH2), the pKi was 7.54.
With CCC(C)[C@H](NC(=O)CN)C(=O)N[C@@H](Cc1ccccc1)C(=O)N[C@H](C(=O)N[C@@H](CC(=O)O)C(=O)N[C@@H](CO)C(=O)N[C@@H](Cc1ccc(O)cc1)C(=O)N[C@@H](CO)C(=O)N[C@@H](CCCN=C(N)N)C(=O)N[C@@H](Cc1ccc(O)cc1)C(=O)N[C@@H](CCCN=C(N)N)C(=O)N[C@@H](CCCCN)C(=O)N[C@@H](CCC(N)=O)C(=O)N[C@@H](CCSC)C(=O)N[C@@H](C)C(=O)N[C@H](C(=O)N[C@@H](CCCCN)C(=O)N[C@@H](CCCCN)C(=O)N[C@@H](Cc1ccc(O)cc1)C(=O)N[C@@H](CC(C)C)C(=O)N[C@@H](C)C(=O)N[C@@H](C)C(=O)N[C@H](C(=O)N[C@@H](CC(C)C)C(N)=O)C(C)C)C(C)C)[C@@H](C)O (some centres not stated) [PACAP(4-27)] (H-G[Ile(3ξ)]FTDSYSRYRKQMAVKKYLAAVL-NH2) the pKi was 6.30.
In the case of CSCC[C@H](NC(=O)[C@H](CCC(N)=O)NC(=O)[C@H](CCCCN)NC(=O)[C@H](CCCN=C(N)N)NC(=O)[C@H](Cc1ccc(O)cc1)NC(=O)[C@H](CCCN=C(N)N)NC(=O)[C@H](CO)NC(=O)[C@H](Cc1ccc(O)cc1)NC(=O)[C@H](CO)NC(=O)[C@H](CC(=O)O)NC(=O)[C@@H](NC(=O)[C@@H](N)Cc1ccccc1)[C@@H](C)O)C(=O)N[C@@H](C)C(=O)N[C@H](C(=O)N[C@@H](CCCCN)C(=O)N[C@@H](CCCCN)C(=O)N[C@@H](Cc1ccc(O)cc1)C(=O)N[C@@H](CC(C)C)C(=O)N[C@@H](C)C(=O)N[C@@H](C)C(=O)N[C@H](C(=O)N[C@@H](CC(C)C)C(N)=O)C(C)C)C(C)C [PACAP(5-27)] (H-FTDSYSRYRKQMAVKKYLAAVL-NH2), the pKi was 6.82.
CSCC[C@H](NC(=O)[C@H](CCC(N)=O)NC(=O)[C@H](CCCCN)NC(=O)[C@H](CCCN=C(N)N)NC(=O)[C@H](Cc1ccc(O)cc1)NC(=O)[C@H](CCCN=C(N)N)NC(=O)[C@H](CO)NC(=O)[C@H](Cc1ccc(O)cc1)NC(=O)[C@H](CO)NC(=O)[C@H](CC(=O)O)NC(=O)[C@@H](N)[C@@H](C)O)C(=O)N[C@@H](C)C(=O)N[C@H](C(=O)N[C@@H](CCCCN)C(=O)N[C@@H](CCCCN)C(=O)N[C@@H](Cc1ccc(O)cc1)C(=O)N[C@@H](CC(C)C)C(=O)N[C@@H](C)C(=O)N[C@@H](C)C(=O)N[C@H](C(=O)N[C@@H](CC(C)C)C(N)=O)C(C)C)C(C)C [PACAP(6-27)] (H-TDSYSRYRKQMAVKKYLAAVL-NH2) gave a pKi of 7.00.
For CSCC[C@H](NC(=O)[C@H](CCC(N)=O)NC(=O)[C@H](CCCCN)NC(=O)[C@H](CCCN=C(N)N)NC(=O)[C@H](Cc1ccc(O)cc1)NC(=O)[C@H](CCCN=C(N)N)NC(=O)[C@H](CO)NC(=O)[C@H](Cc1ccc(O)cc1)NC(=O)[C@H](CO)NC(=O)[C@@H](N)CC(=O)O)C(=O)N[C@@H](C)C(=O)N[C@H](C(=O)N[C@@H](CCCCN)C(=O)N[C@@H](CCCCN)C(=O)N[C@@H](Cc1ccc(O)cc1)C(=O)N[C@@H](CC(C)C)C(=O)N[C@@H](C)C(=O)N[C@@H](C)C(=O)N[C@H](C(=O)N[C@@H](CC(C)C)C(N)=O)C(C)C)C(C)C [PACAP(8-27)] (H-DSYSRYRKQMAVKKYLAAVL-NH2), the pKi was 5.89.
CSCC[C@H](NC(=O)[C@H](CCC(N)=O)NC(=O)[C@H](CCCCN)NC(=O)[C@H](CCCN=C(N)N)NC(=O)[C@H](Cc1ccc(O)cc1)NC(=O)[C@H](CCCN=C(N)N)NC(=O)[C@H](CO)NC(=O)[C@H](Cc1ccc(O)cc1)NC(=O)[C@H](CO)NC(=O)[C@@H](N)CC(=O)O)C(=O)N[C@@H](C)C(=O)N[C@H](C(=O)N[C@@H](CCCCN)C(=O)N[C@@H](CCCCN)C(=O)N[C@@H](Cc1ccc(O)cc1)C(=O)N[C@@H](CC(C)C)C(=O)N[C@@H](C)C(=O)N[C@@H](C)C(=O)N[C@H](C(=O)N[C@@H](CC(C)C)C(=O)NCC(=O)N[C@@H](CCCCN)C(=O)N[C@@H](CCCN=C(N)N)C(=O)N[C@@H](Cc1ccc(O)cc1)C(=O)N[C@@H](CCCCN)C(=O)N[C@@H](CCC(N)=O)C(=O)N[C@@H](CCCN=C(N)N)C(=O)N[C@H](C(=O)N[C@@H](CCCCN)C(=O)N[C@@H](CC(N)=O)C(=O)N[C@@H](CCCCN)C(N)=O)C(C)C)C(C)C)C(C)C [PACAP(8-38)] (H-DSYSRYRKQMAVKKYLAAVLGKRYKQRVKNK-NH2) showed a pKi of 7.52.
For CSCC[C@H](NC(=O)[C@H](CCC(N)=O)NC(=O)[C@H](CCCCN)NC(=O)[C@H](CCCN=C(N)N)NC(=O)[C@H](Cc1ccc(O)cc1)NC(=O)[C@H](CCCN=C(N)N)NC(=O)[C@H](CO)NC(=O)[C@H](Cc1ccc(O)cc1)NC(=O)[C@@H](N)CO)C(=O)N[C@@H](C)C(=O)N[C@H](C(=O)N[C@@H](CCCCN)C(=O)N[C@@H](CCCCN)C(=O)N[C@@H](Cc1ccc(O)cc1)C(=O)N[C@@H](CC(C)C)C(=O)N[C@@H](C)C(=O)N[C@@H](C)C(=O)N[C@H](C(=O)N[C@@H](CC(C)C)C(=O)NCC(=O)N[C@@H](CCCCN)C(=O)N[C@@H](CCCN=C(N)N)C(=O)N[C@@H](Cc1ccc(O)cc1)C(=O)N[C@@H](CCCCN)C(=O)N[C@@H](CCC(N)=O)C(=O)N[C@@H](CCCN=C(N)N)C(=O)N[C@H](C(=O)N[C@@H](CCCCN)C(=O)N[C@@H](CC(N)=O)C(=O)N[C@@H](CCCCN)C(N)=O)C(C)C)C(C)C)C(C)C [PACAP(9-38)] (H-SYSRYRKQMAVKKYLAAVLGKRYKQRVKNK-NH2), the pKi was 7.30.
